This is an account of results in PubChem BioAssay (NCI).

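Where inhibition never reached the appropriate level, the endpoint shown equals the highest concentration tested. Otherwise, values were interpolated linearly from a five-concentration, 48-hour dose response in 96-well plates. TGI: concentration producing complete growth inhibition.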

Test in all cases: NCI tumour cell line growth inhibition, 48 h
Test [1] deals with NCI-H522 lung.
Test [2] concerns U251 CNS.
Test [3] concerns LOX IMVI melanoma.
Test [4] concerns MDA-MB-231 breast.
The subject of test [5] is HCC-2998 colon.
Test [6] has as its system MOLT-4 leukemia.
Test [7] relates to SN12C renal.
In test [8] the test system is NCI/ADR-RES ovarian.
For test [9], the system named is SK-MEL-28 melanoma.
Test [10] has as its system HOP-92 NSCLC.

On to `Cc1ccc(S(=O)(=O)n2ccc(-c3ccc4ccn(S(=O)(=O)c5ccc(C)cc5)c4c3)c2)cc1`, for which the TGI in test [1], in test [2], in [3], in test [4], in test [5] and in test [6] was over 100 µM each time. In addition, the TGI in test [7] and in [8] was over 100 µM each time.

Turning to `O=[N+]([O-])c1ccc(O)c(/C=N/c2nc(-c3ccccc3)cs2)c1`, the TGI is 38.1 µM in test [1]; over 100 µM in test [9]; 75.2 µM in [10]; over 100 µM in [2]; 38.7 µM in [3]; over 100 µM in [4]. In addition, the TGI is over 61.4 µM in test [5], 43.3 µM in test [6], over 100 µM in test [7] and over 91.4 µM in test [8].

With `COc1ccc(C2SCC(=O)N2NC(=O)C(C)Oc2ccccc2C)cc1` (stereo not drawn), the TGI in test [1], in test [9], in [10], in test [2], in test [3] and in test [4] was over 100 µM throughout. The TGI in test [5] was over 100 µM; in test [6] it was 87.9 µM; in test [7] it was over 100 µM; in test [8], over 100 µM.

On to `CCOc1ccc(/C=C2\NC(=S)N(/C=C3\C(=O)Oc4ccccc4C3=O)C2=O)cc1`, for which the TGI in test [1] was 51.2 µM; in [9], 83.9 µM; in [10], 53.4 µM; in test [2], 78.4 µM; in test [3], 87.5 µM; in [4] it was 50.7 µM. For the same molecule, the TGI is over 100 µM in test [5], 51.2 µM in test [6], 45.3 µM in test [7] and 45.7 µM in test [8].

In the case of `CCCN(CCC)C1CCc2c(ccc3cc[nH]c23)C1` (stereo not drawn), the TGI in test [1] was over 100 µM; in test [9], 89.4 µM; in test [10] it was over 100 µM; in test [2], over 100 µM; in test [4], over 100 µM; in test [5], 59.9 µM. In addition, the TGI in test [6] was 96.7 µM; in test [7], over 100 µM; in test [8] it was over 100 µM.

As to `COC(=O)c1cccc(OC)c1C#Cc1c(OC)cccc1OC`, the TGI in [1], in test [9], in [10], in [2], in [3] and in test [4] was over 100 µM in each case. In addition, the TGI in test [5], in test [6], in test [7] and in test [8] was over 100 µM throughout.

For `Nc1ccc2ccc(-c3ccc[nH]3)nc2n1`, the TGI in test [1], in test [9], in [10], in test [2], in test [3] and in [4] was over 100 µM throughout. Also, the TGI in test [5], in test [7] and in test [8] was over 100 µM in each case.

`COC12C=CC(C=C1C#N)CC2` (stereo not drawn) (tested in a mixture with another compound): the TGI in test [1], in test [9], in test [10], in [2], in [4] and in [5] was over 100 µM throughout. Further, the TGI in [6], in test [7] and in test [8] was over 100 µM throughout.

`CC(C)(C)OC(=O)N1[C@@H]2Cc3ccc(N)cc3[C@@]1(C)c1ccccc12`: the TGI in test [1] amounted to 38.4 µM; in test [10] it was 52.3 µM; in [2], 32.4 µM; in test [3] it was 62.1 µM; in [4] it was 75.3 µM; in test [5] it was 47.2 µM. Also, the TGI came out at 48.5 µM in [6], 30.7 µM in test [7] and 51.1 µM in test [8].

`O=C(c1ccc(O)c([N+](=O)[O-])c1)c1ccc(O)c([N+](=O)[O-])c1`: the TGI in test [1], in test [9], in test [10], in test [2], in [3] and in test [4] was over 100 µM throughout. Besides, the TGI in test [5], in test [7] and in test [8] was over 100 µM in each case.

In the case of `O=C(C(Cl)=C(N1CCCCC1)N1CCCCC1)C(Cl)Cl`, the TGI in [1], in [9], in test [10], in [3], in test [4] and in test [5] was over 100 µM each time. The TGI in [6], in [7] and in test [8] was over 100 µM each time.

On to `N[C@H](CCC(=O)NCP(=O)(O)O)C(=O)O`, for which the TGI in [1], in [9], in test [2], in test [4], in test [5] and in test [6] was over 100 µM in each case. Moreover, the TGI in test [7] and in test [8] was over 100 µM each time.

Consider `O=C(O)CCc1ccc2c(c1)CC1(Cc3ccccc3C1)C2`, for which the TGI in test [1], in test [10], in test [2], in test [3], in [4] and in test [5] was over 100 µM in each case. Besides, the TGI in test [6], in [7] and in test [8] was over 100 µM in each case.

`Cc1ccc(S(=O)(=O)N/N=C2/CCC(C(C)(C)C)CC2Br)cc1` (stereo not drawn): the TGI is 35.3 µM in test [1]; 54.5 µM in [9]; 72.3 µM in test [10]; 21.1 µM in test [2]; 30.5 µM in [3]; over 100 µM in test [4]. The TGI in test [6] is 49.3 µM; in test [7] it was 32.4 µM; in test [8] it was 36.5 µM.
